Test results published in patent US20020123480A1, “Methods and compositions utilizing 2'-5' oligoadenylates in the treatment of disorders of cell proliferation” (priority 2000, published 2002).
Converted amounts (≈) assume the structure as drawn. Read-outs that look alike come from different tables or passages of the source.

Key:
EiL8 (HPV-16-positive) = test: Growth of HPV-positive EiL8 cells, Coulter Counter cell count; format: cell-based, human; settings: for IC50: Homo sapiens, read-out: IC50 (concentration required to reduce cell growth by 50%)
Method: (§1) The cells used in the first study included CK-1 (HPV-33-positive), EiL8 (HPV-16-positive), SiHa (HPV-16-positive) and HeLa (HPV-18-positive) and control primary human cervical keratinocytes (PHK). The cells were cultured in growth medium at 37° C., in 5% CO2. For these experiments, the cells were seeded in 96-well microtiter plates and after 24 hours of growth, serial dilutions of the test compounds were added. The cells were not fed after addition of the compounds. After three, five, seven and ten days, the cells were harvested by trypsinization and counted with a Coulter Counter. Duplicate wells were analyzed for each dilution and the results averaged. The number of cells recovered at each dilution was compared to the number of cells in untreated control wells and the concentration of test compound required to reduce cell growth by 50 percent (IC50) was determined.

HeLa (HPV-18-positive) = test: Growth of HPV-positive HeLa cells, Coulter Counter cell count; format: cell-based, human; settings: for IC50: Homo sapiens
CK-1 (HPV-33-positive) = test: cells; format: cell-based; settings: for IC50: Homo sapiens, read-out: IC50 (concentration required to reduce cell growth by 50%)
[1] = system: Daudi cells, an Epstein-Barr Virus (EBV)-positive Burkitt's lymphoma tumor cell line; test: Growth of Daudi cells, neutral red uptake assay; format: cell-based, human
Method: as §1
(§2) The human foreskin fibroblast (HFF) cells were cultured in growth medium as described above, but assayed by neutral red uptake and counting of cells. The human embryonic lung fibroblast (HEL) cells were cultured in growth medium and assayed as described above by counting with a Coulter Counter. Daudi cells, an Epstein-Barr Virus (EBV)-positive Burkitt's lymphoma tumor cell line, were cultured in growth medium as described above and assayed by the neutral red uptake assay. […]

[2] = system: human foreskin fibroblast (HFF) cells; test: Growth of human foreskin fibroblasts, neutral red uptake and counting of cells; format: cell-based
Method: as §1, §2

[3] = system: primary human cervical keratinocytes (PHK); test: Growth of control primary human cervical keratinocytes, Coulter Counter cell count; format: cell-based; settings: for IC50: Homo sapiens, Keratinocyte
SiHa (HPV-16-positive) = test: Growth of HPV-positive SiHa cells, Coulter Counter cell count; format: cell-based, human; settings: for IC50: Homo sapiens
[4] = system: human papillomavirus (HPV)-positive cell lines; test: Growth of human papillomavirus (HPV)-positive cell lines in presence of test compounds; format: cell-based
Method: See […] et at., Oncol Res. 10, 523-31 (1998) and J. A. Johnson et al., Antimicrob. Agents Chemother. 43, 1198-205 (1999). […] For these experiments, the cells were seeded in 96-well microtiter plates and after 24 hours of growth, serial dilutions of the test compounds were added. The cells were not fed after addition of the compounds. After three, five, seven and ten days, the cells were harvested by trypsinization and counted with a Coulter Counter. Duplicate wells were analyzed for each dilution and the results averaged.

[5] = system: human papillomavirus (HPV)-positive cell lines; settings: literature (Andrei 1998; Johnson 1999); cited from earlier work
[6] = 72 h, Day 3, read-out: IC50 (concentration required to reduce cell growth by 50%)
[7] = 120 h, Day 5, read-out: IC50 (concentration required to reduce cell growth by 50%)
[8] = 168 h, Day 7, read-out: IC50 (concentration required to reduce cell growth by 50%)
[9] = 240 h, Day 10, read-out: IC50 (concentration required to reduce cell growth by 50%)

In the case of “2′,3′-cyclophosphateadenylyl(2′,5′)adenylyl-(2′,5′)adenosine [Cmpd. I]”, the “IC50 (concentration required to reduce cell growth by 50%)” value (EiL8 (HPV-16-positive); EiL8, Day 3) is reported as 63 µg/mL, the “IC50 (concentration required to reduce cell growth by 50%)” value (EiL8 (HPV-16-positive); EiL8, Day 5) is reported as 68 µg/mL and the “IC50 (concentration required to reduce cell growth by 50%)” value (EiL8 (HPV-16-positive); EiL8, Day 7) is reported as 103 µg/mL. For the same compound, the “IC50 (concentration required to reduce cell growth by 50%)” value (EiL8 (HPV-16-positive); EiL8, Day 10) was 180 µg/mL, the “IC50 (concentration required to reduce cell growth by 50%)” value (HeLa (HPV-18-positive); Day 3) was 66 µg/mL and the “IC50 (concentration required to reduce cell growth by 50%)” value (HeLa (HPV-18-positive); Day 5) was 62 µg/mL. The “IC50 (concentration required to reduce cell growth by 50%)” value (HeLa (HPV-18-positive); Day 7) was 90 µg/mL, the “IC50 (concentration required to reduce cell growth by 50%)” value (HeLa (HPV-18-positive); Day 10) was 160 µg/mL and the “IC50 (concentration required to reduce cell growth by 50%)” value (CK-1 (HPV-33-positive); CK-1, Day 3) was 100 µg/mL. The “IC50 (concentration required to reduce cell growth by 50%)” value (CK-1 (HPV-33-positive); CK-1, Day 5) was 46 µg/mL, the “IC50 (concentration required to reduce cell growth by 50%)” value (CK-1 (HPV-33-positive); CK-1, Day 7) was 104 µg/mL and the “IC50 (concentration required to reduce cell growth by 50%)” value (CK-1 (HPV-33-positive); CK-1, Day 10) was 303 µg/mL. The “inhibition of growth (in words)” value [1] was “inhibit the growth”, the “inhibition of growth (in words)” value [2] was “inhibit the growth” and the “IC50 (concentration required to reduce cell growth by 50%)” value ([3]; Day 3) was 110 µg/mL. For the same compound, the “IC50 (concentration required to reduce cell growth by 50%)” value ([3]; Day 5) was 168 µg/mL, the “IC50 (concentration required to reduce cell growth by 50%)” value ([3]; Day 7) was 262 µg/mL and the “IC50 (concentration required to reduce cell growth by 50%)” value ([3]; Day 10) was 280 µg/mL. For the same compound, the “IC50 (concentration required to reduce cell growth by 50%)” value (SiHa (HPV-16-positive); Day 3) was 150 µg/mL, the “IC50 (concentration required to reduce cell growth by 50%)” value (SiHa (HPV-16-positive); Day 5) was 108 µg/mL and the “IC50 (concentration required to reduce cell growth by 50%)” value (SiHa (HPV-16-positive); Day 7) was 141 µg/mL. For the same compound, the “IC50 (concentration required to reduce cell growth by 50%)” value (SiHa (HPV-16-positive); Day 10) was 193 µg/mL and the “growth inhibition / anti-proliferative activity (in words)” value [4] was “anti-proliferative activity”.
With `Nc1nc2c(ncn2COCCO)c(=O)[nH]1` [acyclovir, reference compound] the “growth inhibition / anti-proliferative activity (in words)” value [4] was “With the exception of acyclovir, growth inhibition was observed”.
In the case of `Nc1ccn(C[C@@H](CO)OCP(=O)(O)O)c(=O)n1` [HPMPC, 3-hydroxy-2-phosphonylmethoxy-propyl cytosine, reference compound], the “inhibition of proliferation of HPV-transformed cells (in words)” value [5] is given as “inhibit the proliferation”, the IC50 (EiL8 (HPV-16-positive); 72 h, EiL8, Day 3) is given as 39 µg/mL (≈ 140 µM) and the IC50 (EiL8 (HPV-16-positive); 120 h, EiL8, Day 5) is given as 7.9 µg/mL (≈ 28.3 µM). The IC50 (EiL8 (HPV-16-positive); 168 h, EiL8, Day 7) was 4.2 µg/mL (≈ 15 µM), the IC50 (EiL8 (HPV-16-positive); 240 h, EiL8, Day 10) was 3.5 µg/mL (≈ 12.5 µM) and the IC50 (HeLa (HPV-18-positive); [6]) was 37 µg/mL (≈ 133 µM). The IC50 (HeLa (HPV-18-positive); [7]) was 5.6 µg/mL (≈ 20.1 µM), the IC50 (HeLa (HPV-18-positive); [8]) was 3.9 µg/mL (≈ 14 µM) and the IC50 (HeLa (HPV-18-positive); [9]) was 4.7 µg/mL (≈ 16.8 µM). The IC50 (CK-1 (HPV-33-positive); CK1, 72 h, CK-1, Day 3) was 32 µg/mL (≈ 115 µM), the IC50 (CK-1 (HPV-33-positive); CK1, 120 h, CK-1, Day 5) was 1.1 µg/mL (≈ 3.94 µM) and the IC50 (CK-1 (HPV-33-positive); CK1, 168 h, CK-1, Day 7) was 0.5 µg/mL (≈ 1.79 µM). It also gave an IC50 (CK-1 (HPV-33-positive); CK1, 240 h, CK-1, Day 10) of 1.2 µg/mL (≈ 4.3 µM), an IC50 [3, 6] of 9.9 µg/mL (≈ 35.5 µM) and an IC50 [3, 7] of 7 µg/mL (≈ 25.1 µM). The IC50 [3, 8] was 6.4 µg/mL (≈ 22.9 µM), the IC50 [3, 9] was 3.7 µg/mL (≈ 13.3 µM) and the IC50 (SiHa (HPV-16-positive); [6]) was 179 µg/mL (≈ 641 µM). The IC50 (SiHa (HPV-16-positive); [7]) was 8.6 µg/mL (≈ 30.8 µM), the IC50 (SiHa (HPV-16-positive); [8]) was 4.7 µg/mL (≈ 16.8 µM) and the IC50 (SiHa (HPV-16-positive); [9]) was 4 µg/mL (≈ 14.3 µM).
